The results in this text go back to patent publication US20200299306A1, “COMPOUNDS WITH A BENZO[A]CARBAZOLE STRUCTURE AND USE THEREOF” (UNIVERSITA' DI PISA, priority 2017, published 2020).

T1 sequence (Q00987 whole entry, one chain of several): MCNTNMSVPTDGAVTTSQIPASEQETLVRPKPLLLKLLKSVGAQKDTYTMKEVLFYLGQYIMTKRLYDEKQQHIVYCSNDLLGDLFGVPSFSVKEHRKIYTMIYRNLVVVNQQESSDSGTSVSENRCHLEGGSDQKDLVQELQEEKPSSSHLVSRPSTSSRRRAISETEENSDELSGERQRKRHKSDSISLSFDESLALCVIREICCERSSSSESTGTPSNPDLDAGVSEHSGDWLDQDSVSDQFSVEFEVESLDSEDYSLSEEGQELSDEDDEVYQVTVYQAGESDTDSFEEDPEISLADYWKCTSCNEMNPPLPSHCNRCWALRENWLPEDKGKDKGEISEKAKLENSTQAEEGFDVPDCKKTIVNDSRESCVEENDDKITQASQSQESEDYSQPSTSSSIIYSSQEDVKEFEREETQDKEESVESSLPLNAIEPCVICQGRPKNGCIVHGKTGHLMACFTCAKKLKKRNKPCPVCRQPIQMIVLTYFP

The first experiment concerns U343MG. Description: Effect on cell cycle (U343MG). It is filed as cell-based, human. Conditions: FIG. 6. As to the method:
7) Effect of RM37 on cell cycle (U343MG; 1,2). […] The results are set out in FIG. 6.
On to `CC(=O)OCC1=C(C(=O)OC(C)(C)C)N2C(=O)[C@@H](NC(=O)COc3ccc4c(c3)CCc3c-4[nH]c4ccc(F)cc34)[C@H]2SC1` [RM37, (6R, 7R)-tert-butyl-7-(2-(8-fluoro-6,11-dihydro-5H-benzo[a]carbazol-3-yloxy)acetamido)-3-(acetoxymethyl)-8-oxo-5-thia-1-azabicyclo[4.2.0]oct-2-ene-2-carboxylate], for which the “Effect on cell cycle” value is listed as “blocks the cell cycle in G1”.

A further experiment deals with protein p53. Briefly: Stabilisation of intracellular levels of protein p53 (343MG). It is filed as cell-based, human. Particulars: U343MG; FIG. 3. An excerpt:
1) Costa, B; Grillone, A F; Salvetti, A; Rocchiccioli, S; Iacopetti, P; Daniele, S; Da Pozzo, E; Campiglia, P; Novellino, E; Martini, C; Rossi, L An antibody-free strategy for screening putative HDM2 inhibitors using crude bacterial lysates expressing GST-HDM2 recombinant protein Drug Testing and Analysis (2013), 5, 7, 596-601.
2) Costa B, Bendinelli S, Gabelloni P, Da Pozzo E, Daniele S, et al. Human Glioblastoma Multiforme: p53 Reactivation by a Novel MDM2 Inhibitor. PLoS ONE (2013) 8(8): e72281. doi:10.1371/journal.pone.0072281.
The results are set out in FIG. 3.
Regarding `CC(=O)OCC1=C(C(=O)OC(C)(C)C)N2C(=O)[C@@H](NC(=O)COc3ccc4c(c3)CCc3c-4[nH]c4ccc(F)cc34)[C@H]2SC1` [RM37, (6R, 7R)-tert-butyl-7-(2-(8-fluoro-6,11-dihydro-5H-benzo[a]carbazol-3-yloxy)acetamido)-3-(acetoxymethyl)-8-oxo-5-thia-1-azabicyclo[4.2.0]oct-2-ene-2-carboxylate], the “Stabilisation of intracellular levels of protein p53” value was “stabilises the intracellular levels of protein p53”.

In the next experiment the test system is p53. Description: Stabilisation of p53 (U343MG). It counts as cell-based, human. Particulars: due to reduction of p53 bonded to MDM2, not mRNA induction, FIG. 1.
For the molecule `CC(=O)OCC1=C(C(=O)OC(C)(C)C)N2C(=O)[C@@H](NC(=O)COc3ccc4c(c3)CCc3c-4[nH]c4ccc(F)cc34)[C@H]2SC1` [RM37, (6R, 7R)-tert-butyl-7-(2-(8-fluoro-6,11-dihydro-5H-benzo[a]carbazol-3-yloxy)acetamido)-3-(acetoxymethyl)-8-oxo-5-thia-1-azabicyclo[4.2.0]oct-2-ene-2-carboxylate], the “Stabilisation of p53” value is reported as “stabilisation of p53”.

The next experiment addresses T1, p53/MDM2 complex (Homo sapiens, UniProt Q00987).
T1 construct: Test performed on cell lysate of human glioblastoma (GBM) cells U343MG; endogenous in cells; host or cells: U343MG human glioblastoma cells (lysate)
Description: Inhibitory effect on p53/MDM2 complex binding, cell lysate of human glioblastoma U343MG cells. Conditions: 10 uM; cell lysate of human glioblastoma (GBM) cells U343MG; read-out: % inhibition at 10 uM of p53/MDM2 complex binding. As to the method: Test performed on cell lysate of human glioblastoma (GBM) cells U343MG (1,2).
Turning to `COc1ccc2c(c1)-c1[nH]c3ccc(Cl)cc3c1CO2` [RA16], the inhibition at 10 µM was below 5%.
Take `Clc1ccc2[nH]c3c(c2c1)COc1ccccc1-3` [RA15]: the inhibition at 10 µM was below 5%.
With `CN(C)CCCn1c2ccc(Cl)cc2c2ccc3cc(OCC(=O)O)ccc3c21` [RM58], the inhibition at 10 µM stood at 58%.
With `CC(=O)OCC1=C(C(=O)O)N2C(=O)[C@@H](NC(=O)COc3ccc4c(c3)CCc3c-4[nH]c4ccc(F)cc34)[C@H]2SC1` [RM53, (6R,7R)-7-(2-[(8-fluoro-6,11-dihydro-5H-benzo[a]carbazol-3-yl)oxy]acetamido)-3-(acetoxymethyl)-8-oxy-5-thia-1-azabicyclo[4.2.0]oct-2-ene-2-carboxylic acid], the inhibition at 10 µM was below 5%.
For the molecule `CCNC(=O)COc1ccc2c(c1)S(=O)(=O)Cc1c-2[nH]c2ccc(F)cc12` [RA13], the inhibition at 10 µM was 22%.

Staying with this experiment, now noted: cell lysate of human glioblastoma (GBM) cells U343MG.
What is called IC50 is the midpoint of a concentration-inhibition curve. Take `CC(=O)OCC1=C(C(=O)OC(C)(C)C)N2C(=O)C(NC(=O)COc3ccc4c(c3)CCc3c-4[nH]c4ccc(Cl)cc34)C2SC1` (stereo not shown) [RM36]: the IC50 was determined as 280 ± 20 nM.
Still for that read-out and setting: in the case of `COc1ccc2[nH]c3c(c2c1)CCCc1cc(OCC(=O)O)ccc1-3` [RA2] it was 2900 ± 120 nM.
Regarding `CCNC(=O)C(CCCNC(=O)OCc1ccccc1)NC(=O)CC1C(NC(=O)COc2ccc3c(c2)S(=O)(=O)NCc2c-3[nH]c3ccc(F)cc23)C(=O)N1CC(=O)OCc1ccc(OC)cc1` (stereo not shown) [RA44], the IC50 was 223 ± 22 nM. Compared with the last molecule, the IC50 is about 13-fold lower.
`CC(C)(C)OC(=O)C1N2C(=O)C(NC(=O)COc3ccc4c(c3)S(=O)(=O)NCc3c-4[nH]c4ccc(F)cc34)C2SC1(C)C` (stereo not shown) [RA42]: the IC50 came out at 292 ± 25 nM.
In turn, `CCOC(=O)/C(COc1ccc2c(ccc3c4cc(Cl)ccc4n(CCCN(C)C)c23)c1)=N/OC` [RM66] registered an IC50 of 2700 ± 120 nM.
With `CC(=O)OCC1=C(C(=O)OC(C)(C)C)N2C(=O)C(NC(=O)COc3ccc4c(c3)OCc3c-4[nH]c4ccc(F)cc34)C2S(=O)(=O)C1` (stereo not shown) [RA31], the half-maximal inhibitory concentration (IC50) was 120 ± 45 nM.
On the same count and under the same terms, in the case of `CC(=O)OCC1=C(C(=O)OC(C)(C)C)N2C(=O)C(NC(=O)COc3ccc4c(c3)S(=O)(=O)NCc3c-4[nH]c4ccc(F)cc34)C2SC1` (stereo not shown) [RA40] it was 197 ± 124 nM.
The same measure, in the same setting: as for `O=C(COc1ccc2c(c1)S(=O)(=O)CCc1c-2[nH]c2ccc(F)cc12)NCc1ccc(F)c(F)c1` [RA1], the figure is 920 ± 20 nM.
Still for that read-out and setting: as for `CC(=O)OCC1=C(C(=O)OC(C)(C)C)N2C(=O)C(NC(=O)COc3ccc4c(c3)CCc3c-4[nH]c4ccc(Br)cc34)C2SC1` (stereo not shown) [RM47], the figure is 195 ± 22 nM.
In turn, `COc1cc2c(cc1OC)-c1c(c3c(N)cccc3n1CCCN(C)C)CCC2` [GA17M8] showed an IC50 of 12700 ± 1500 nM.
Same read-out and setting: as for `CNC(=O)C(CCCNC(=O)OCc1ccccc1)NC(=O)COc1ccc2c(c1)OCc1c-2[nH]c2ccc(OCC(=O)NC(CCc3ccccc3)C(=O)N(C)C)cc12` (stereo not shown) [RA19], the figure is 450 ± 15 nM; as for `COc1ccc(COC(=O)C2N3C(=O)C(NC(=O)COc4ccc5c(c4)S(=O)(=O)CCc4c-5[nH]c5ccc(F)cc45)C3SC2(C)C)cc1` (stereo not shown) [RM43], 228 ± 16 nM; as for `CNC(=O)C(CCCNC(=O)OCc1ccccc1)NC(=O)COc1ccc2c(c1)OCc1c-2[nH]c2ccc(F)cc12` (stereo not shown) [RA18], 1350 ± 150 nM.
Molecule `CC(=O)OCC1=C(C(=O)OC(C)(C)C)N2C(=O)[C@@H](NC(=O)COc3ccc4c(c3)CCc3c-4[nH]c4cc([N+](=O)[O-])ccc34)[C@H]2SC1` [GA09b] came in with an IC50 of 225 ± 20 nM.
In the case of `COc1ccc(COC(=O)C2N3C(=O)C(NC(=O)COc4ccc5c(c4)OCc4c-5[nH]c5ccc(Br)cc45)C3SC2(C)C)cc1` (stereo not shown) [RA35], the IC50 was found to be 375 ± 22 nM.
For `CC(=O)OCC1=C(C(=O)OC(C)(C)C)N2C(=O)C(NC(=O)COc3ccc4c(c3)/C(=N\O)Cc3c-4[nH]c4ccc(F)cc34)C2SC1` (stereo not shown) [RM38], the IC50 turned out to be 222 ± 210 nM.
`CN(C)C(=O)C(CCCNC(=O)OCc1ccccc1)NC(=O)COc1ccc2c(c1)S(=O)(=O)NCc1c-2[nH]c2ccc(F)cc12` (stereo not shown) [RA3] gave a half-inhibitory concentration (IC50) of 620 ± 50 nM.
`CCNC(=O)C(CCCNC(=O)OCc1ccccc1)NC(=O)CC1C(NC(=O)COc2ccc3c(c2)S(=O)(=O)Cc2c-3[nH]c3ccc(F)cc23)C(=O)N1CC(=O)OCc1ccc(OC)cc1` (stereo not shown) [RA30] registered an IC50 of 150 ± 10 nM.
For the molecule `CC(=O)OCC1=C(C(=O)OC(C)(C)C)N2C(=O)[C@@H](NC(=O)COc3ccc4c(c3)CCc3c-4[nH]c4cccc([N+](=O)[O-])c34)[C@H]2SC1` [GA09a], the IC50 was determined as 650 ± 50 nM.
For the molecule `CNC(=O)C(CCCNC(=O)OCc1ccccc1)NC(=O)COc1ccc2c(c1)NCc1c-2[nH]c2ccc(F)cc12` (stereo not shown) [RA20], the IC50 came to 1550 ± 250 nM.
On the same count and under the same terms, in the case of `COc1ccc(COC(=O)C2N3C(=O)C(NC(=O)COc4ccc5c(c4)S(=O)(=O)Nc4c-5[nH]c5ccc(Br)cc45)C3SC2(C)C)cc1` (stereo not shown) [RA26] it was 120 ± 90 nM; in that of `CC(=O)OCC1=C(C(=O)OC(C)(C)C)N2C(=O)C(NC(=O)COc3ccc4c(c3)S(=O)(=O)Cc3c-4[nH]c4ccc(F)cc34)C2SC1` (stereo not shown) [RA25], 143 ± 16 nM.
Take `CC(=O)OCC1=C(C(=O)OC(C)(C)C)N2C(=O)[C@@H](NC(=O)COc3ccc4c(c3)CCc3c-4[nH]c4ccc(F)cc34)[C@H]2SC1` [RM37, (6R, 7R)-tert-butyl-7-(2-(8-fluoro-6,11-dihydro-5H-benzo[a]carbazol-3-yloxy)acetamido)-3-(acetoxymethyl)-8-oxo-5-thia-1-azabicyclo[4.2.0]oct-2-ene-2-carboxylate]: the IC50 was 222 ± 44 nM.
`CC(=O)OCC1=C(C(=O)OC(C)(C)C)N2C(=O)C(NC(=O)COc3ccc4c(c3)S(=O)(=O)Nc3c-4[nH]c4ccc(F)cc34)C2SC1` (stereo not shown) [RA36] returned a half-maximal inhibitory concentration (IC50) of 220 ± 100 nM.
`CC(=O)OCC1=C(C(=O)OC(C)(C)C)N2C(=O)C(NC(=O)COc3ccc4c(c3)C(=O)Cc3c-4[nH]c4ccc(C(F)(F)F)cc34)C2SC1` (stereo not shown) [RM39]: the IC50 stood at 232 ± 200 nM.
Take `CCOC(=O)CO/N=C1/Cc2c([nH]c3ccc(F)cc23)-c2ccc(OCC(=O)NC3C(=O)N4C(C(=O)OC(C)(C)C)=C(COC(C)=O)CSC34)cc21` (stereo not shown) [RA37]: the IC50 is 180 ± 150 nM.
The same measure, in the same setting: in the case of `CCNC(=O)CO/N=C1/Cc2c([nH]c3ccc(F)cc23)-c2ccc(OCC(=O)NC3C(=O)N4C3SC(C)(C)C4C(=O)OCc3ccc(OC)cc3)cc21` (stereo not shown) [RA29] it was 100 ± 30 nM.

The same experiment, now with this note: read-out: % inhibition at 10 uM of p53/MDM2 complex binding.
In the case of `COC(=O)C(NC(=O)COc1ccc2c(ccc3c4cc(Cl)ccc4n(CCCN(C)C)c23)c1)c1ccccc1` (stereo not shown) [RM85], the inhibition at 10 µM worked out at 82%.

For another experiment, the system named is U343MG. Briefly: Effect on cell apoptosis (U343MG). It is filed as cell-based, human. Particulars: FIG. 7 and FIG. 8. The procedure:
8) Effect of RM37 on cell apoptosis (U343MG; 1,2). […] The results are set out in FIG. 7 and FIG. 8.
Consider `CC(=O)OCC1=C(C(=O)OC(C)(C)C)N2C(=O)[C@@H](NC(=O)COc3ccc4c(c3)CCc3c-4[nH]c4ccc(F)cc34)[C@H]2SC1` [RM37, (6R, 7R)-tert-butyl-7-(2-(8-fluoro-6,11-dihydro-5H-benzo[a]carbazol-3-yloxy)acetamido)-3-(acetoxymethyl)-8-oxo-5-thia-1-azabicyclo[4.2.0]oct-2-ene-2-carboxylate], for which the “Effect on cell apoptosis” value is on record as “induces cell apoptosis”.
